US12384756B2, “Piperidinedione derivatives” (INNOCURE THERAPEUTICS, INC., priority 2021, dated 2025)
Read-outs that look alike come from different tables or passages of the source.

Assays:
Format in all cases: cell-based
BRD4 [1] = molecular target: T1, BRD4 (Homo sapiens, UniProt O60885); experiment: BRD4 degradation by western blot in A549 cells; parameters: BRD4 expressed in cells; endogenous in cells
Protocol: The human lung cancer cell line A549 was purchased from the Korean Cell Line Bank.
5×10^5 cells were seeded for each well of the 6 well plate (SPL company), and the cells were cultured with a total of 1.5 mL of the culture medium volume. The cultured cells were treated with various concentrations (0 nM, 0.1 nM, 0.3 nM, 1 nM, 3 nM, 10 nM, 30 nM, 100 nM, 300 nM, 1000 nM, 3000 nM, 10000 nM) of PROTAC compound according to the present invention and cultured for 24 hours.
For cell lysis, a lysis buffer was added and cell lysate was obtained using a cell scraper.
Specifically, cells were treated with 70 μl of 1×RIPA buffer containing protease inhibitors. Cell lysate was collected on ice using a scraper and incubated for 30 minutes. Then, cells were centrifuged at 4° C. 15,000 rpm for 30 minutes to obtain a cell lysate.
The standard curve was obtained using BCA assay, and the protein mass in the lysate was quantified by substituting the standard curve. The mixture was incubated at 37° C. for 30 minutes using a sample solution of 1 μl and a BCA solution of 200 μl. The absorbance was measured at 562 nm. Samples were prepared by adding a sample buffer to reach 10 μg per well.
SDS-PAGE was conducted by setting a running time of 70 minutes at 110 V in a 4-15% Mini-PROTEAN TGX stain-free gel (15 wells). A transfer was conducted using a trans-blot turbo transfer system (Bio-rad). Blocking was conducted using a blocking-grade blocker (Bio-rad) for 1 hour. Then, it was washed with 1×TBS containing 0.1% tween 20, and reacted with anti-BRD4 antibody (1:3000) or anti-beta-tubulin antibody (1:3000) in bovine serum albumin as a primary antibody at 4° C. for 16 hours. After washing three times for 10 minutes with 1×TBS containing 0.1% tween 20, it was reacted with anti-rabbit antibody (1:10000) in the blotting-grade blocker as a secondary antibody at room temperature for 1 hour. Then, after washing three times for 10 minutes with 1×TBS containing 0.1% tween 20, detection was conducted with SUPERSIGNAL™ WEST PICO PLUS chemiluminescence substrate.
For result analysis, final blot data were obtained using an image analyzer (GE).
DC50^1): DC50 value is calculated by comparing band intensity with that of a sample which is not treated with a PROTAC compound as a controlled group.
DC50^2): DC50 value is calculated by comparing the band intensity relative to that of beta-tubulin with that of the controlled group.

[2] = system: Human breast cancer cell line [MDA-MB-231]; experiment: Anti-proliferative activity (WST-8) of BRD4 targeted PROTAC in MDA-MB-231; conditions: Homo sapiens, MDA-MB-231, 72 hours
Protocol: (§1) Human breast cancer cell line [MDA-MB-231] was cultured in RPMI medium with 10% petal bovine serum, penicillin [100 U/ml] and streptomycin [[…]]. The synthesized compound was prepared as a stock solution of 10 mM or 50 mM dissolved in DMSO [dimethyl sulfoxide], and it was sequentially diluted to treat the cell line.
In order to observe inhibition of cell growth, cells were aliquoted into concentrations of 5,000 cells/well at 96 well plates, and then were treated with samples prepared at various concentrations for 72 hours. The cell survival was calculated by steps of adding in each well […] of water soluble tetrazolium salt (WST-8) which produces formazon in response to dehydrogenase present in the electron transport chain in mitochondria, incubating for 2 hours, measuring the absorbance at 450 nm, and calculating by GraphicPad Prism 8.0 software.

BRD4 [3] = molecular target: T1, BRD4; experiment: BRD4 protein degradation by western blot in MDA-MB-231 cells; parameters: BRD4 expressed in cells; endogenous in cells; host or cells: MDA-MB-231; conditions: MDA-MB-231, 24 hours; for DC50: 50% inhibition of protein expression, read-out: DC50 of BRD4-targeted PROTAC
Protocol: as §1
To evaluate the PROTAC's degradation ability to BRD4 expressed in cells, the cells were aliquoted into a 6 well plate at a concentration of 5×10^5 cells/ml, and then the sample was treated for 24 hours. In order to conduct western blotting assay to confirm protein expression, the cell treated with the compound was treated for 30 minutes with 70 μL of RIPA buffer wherein protease inhibitor is added. Then, cell lysate was collected on ice using a scraper and centrifuged at 4° C. 15,000 rpm for 30 minutes to obtain a supernatant containing protein. Then, SDS-PAGE is conducted for 10 μg of protein per each sample, and the protein is transferred to a membrane. The protein is reacted with antibodies of anti-BRD4, anti-tubulin and anti-GAPDH at 4° C. for 16 hours, and then, reacted with secondary antibodies at room temperature for 1 hour. The protein expression is confirmed using SUPERSIGNAL™ WEST PICO PLUS chemiluminescence substrate and image analyzer. The protein expression was normalized based on the expression value of β-tublin or GAPDH. The amount of protein expression in each sample was measured in % based on the sample treated with 0.1% DMSO vehicle which was set to 100%. The amount of protein expression was quantified using the IMAGE J PROGRAM. The change in the amount of protein expression due to the treatment of compound (DC50: the concentration of compounds where the 50% inhibition of protein expression is achieved) was calculated using […] PRISM 8.0 software.

[4] = A549, 24 hours; band intensity compared with untreated control; read-out: DC50 1)
[5] = A549, 24 hours; band intensity relative to beta-tubulin compared with control; read-out: DC50 2)
[6] = WST-8, read-out: IC50 of BRD4-targeted PROTAC (cell proliferation)
[7] = read-out: concentration at which cancer cell proliferation is effectively inhibited

Compound | DC50 (BRD4 [1]; [4]) [nM] | DC50 (BRD4 [1]; [5]) [nM] | IC50 [2, 6] [nM] | BRD4 degradation (in words) (BRD4 [3]) | DC50 (BRD4 [3]) [nM] | IC50 [2, 7] [nM]
Cc1sc2c(c1C)C(c1ccc(Cl)cc1)=N[C@@H](CC(=O)NCOCCOCCOCCNc1cccc3cnn(C4CCC(=O)NC4=O)c(=O)c13)c1nnc(C)n1-2 (stereo partly drawn) [Ex. 21, 2-((S)-4-(4-chlorophenyl)-2,3,9-trimethyl-6H-thieno[3,2-f][1,2,4]triazolo[4,3-a][1,4]diazepin-6-yl)-N-((2-(2-(2-((3-(2,6-dioxopiperidin-3-yl)-4-oxo-3,4-dihydrophthalazin-5-yl)amino)ethoxy)ethoxy)ethoxy)methyl)acetamide] | 1600 | 242 |  |  |  | 
Cc1sc2c(c1C)C(c1ccc(Cl)cc1)=N[C@@H](CC(=O)Nc1ccc(OCCOCCOCCNc3ccc4cnn(C5CCC(=O)NC5=O)c(=O)c4c3)cc1)c1nnc(C)n1-2 (stereo partly drawn) [Ex. 26, 2-((S)-4-(4-chlorophenyl)-2,3,9-trimethyl-6H-thieno[3,2-f][1,2,4]triazolo[4,3-a][1,4]diazepin-6-yl)-N-(4-(2-(2-(2-((3-(2,6-dioxopiperidin-3-yl)-4-oxo-3,4-dihydrophthalazin-6-yl)amino)ethoxy)ethoxy)ethoxy)phenyl)acetamide] | 22 | 568 | 126 |  |  | 
Cc1sc2c(c1C)C(c1ccc(Cl)cc1)=N[C@@H](CC(=O)Nc1ccc(OCCOCCOCCNc3ccc4c(=O)n(C5CCC(=O)NC5=O)ncc4c3)cc1)c1nnc(C)n1-2 (stereo partly drawn) [Ex. 25, 2-((S)-4-(4-chlorophenyl)-2,3,9-trimethyl-6H-thieno[3,2-f][1,2,4]triazolo[4,3-a][1,4]diazepin-6-yl)-N-(4-(2-(2-(2-((2-(2,6-dioxopiperidin-3-yl)-1-oxo-1,2-dihydrophthalazin-6-yl)amino)ethoxy)ethoxy)ethoxy)phenyl)acetamide] | 56.9 | 49.6 | 232 |  |  | 
Cc1sc2c(c1C)C(c1ccc(Cl)cc1)=N[C@@H](CC(=O)Nc1cccc(OCCOCCOCCNc3cccc4cnn(C5CCC(=O)NC5=O)c(=O)c34)c1)c1nnc(C)n1-2 (stereo partly drawn) [Ex. 23, 2-((S)-4-(4-chlorophenyl)-2,3,9-trimethyl-6H-thieno[3,2-f][1,2,4]triazolo[4,3-a][1,4]diazepin-6-yl)-N-(3-(2-(2-(2-((3-(2,6-dioxopiperidin-3-yl)-4-oxo-3,4-dihydrophthalazin-5-yl)amino)ethoxy)ethoxy)ethoxy)phenyl)acetamide] | 11.3 | 10.9 | 32.2 | effectively degraded | 2.6 | < 250
Cc1sc2c(c1C)C(c1ccc(Cl)cc1)=N[C@@H](CC(=O)Nc1ccc(OCCOCCOCCOCCNc3cccc4cnn(C5CCC(=O)NC5=O)c(=O)c34)cc1)c1nnc(C)n1-2 (stereo partly drawn) [Ex. 27, 2-[(9S)-7-(4-chlorophenyl)-4,5,13-trimethyl-3-thia-1,8,11,12-tetraazatricyclo[8.3.0.0^2,6]trideca-2(6),4,7,10,12-pentaen-9-yl]-N-[4-(2-{2-[2-(2-{[3-(2,6-dioxopiperidin-3-yl)-4-oxo-3,4-dihydrophthalazin-5-yl]amino}ethoxy)ethoxy]ethoxy}ethoxy)phenyl]acetamide] | 9.21 | 11.9 | 640 |  |  | 
Cc1sc2c(c1C)C(c1ccc(Cl)cc1)=N[C@@H](CC(=O)Nc1ccc(OCCOCCOCCOCCNc3ccc4c(=O)n(C5CCC(=O)NC5=O)ncc4c3)cc1)c1nnc(C)n1-2 (stereo partly drawn) [Ex. 28, 2-((S)-4-(4-chlorophenyl)-2,3,9-trimethyl-6H-thieno[3,2-f][1,2,4]triazolo[4,3-a][1,4]diazepin-6-yl)-N-(4-(2-(2-(2-(2-((2-(2,6-dioxopiperidin-3-yl)-1-oxo-1,2-dihydrophthalazin-6-yl)amino)ethoxy)ethoxy)ethoxy)ethoxy)phenyl)acetamide] | 25.3 | 299 | 33.1 | effectively degraded | 3.3 | < 250
